Assay results taken from PubChem BioAssay (NCI).
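48-hour exposure; five concentrations; linearly interpolated endpoints. TGI marks complete inhibition of growth.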

Assays:
Experiment in all cases: inhibition of tumour cell growth, NCI panel, 48 h
HL-60(TB) leukemia = system: HL-60(TB) leukemia
M14 melanoma = system: M14 melanoma
KM12 colon = system: KM12 colon
UACC-257 melanoma = system: UACC-257 melanoma
SK-MEL-5 melanoma = system: SK-MEL-5 melanoma
OVCAR-3 ovarian = system: OVCAR-3 ovarian
HCT-15 colon = system: HCT-15 colon
DMS 114 small cell lung = system: DMS 114 small cell lung
DLD-1 colon = system: DLD-1 colon
CCRF-CEM leukemia = system: CCRF-CEM leukemia
M19-MEL melanoma = system: M19-MEL melanoma
A498 renal = system: A498 renal
NCI-H460 lung = system: NCI-H460 lung
SK-MEL-2 melanoma = system: SK-MEL-2 melanoma
RXF 393 renal = system: RXF 393 renal
SN12C renal = system: SN12C renal
RPMI-8226 leukemia = system: RPMI-8226 leukemia
A549 NSCLC = system: A549 NSCLC
HCT-116 colon = system: HCT-116 colon
NCI-H23 lung = system: NCI-H23 lung
UO-31 renal = system: UO-31 renal
HOP-18 NSCLC = system: HOP-18 NSCLC
SNB-75 CNS = system: SNB-75 CNS
K-562 leukemia = system: K-562 leukemia
LOX IMVI melanoma = system: LOX IMVI melanoma
ACHN renal = system: ACHN renal
SK-MEL-28 melanoma = system: SK-MEL-28 melanoma
RXF-631 renal = system: RXF-631 renal
OVCAR-8 ovarian = system: OVCAR-8 ovarian
SK-OV-3 ovarian = system: SK-OV-3 ovarian
HOP-92 NSCLC = system: HOP-92 NSCLC
SW-620 colon = system: SW-620 colon
NCI-H522 lung = system: NCI-H522 lung
SF-268 CNS = system: SF-268 CNS
IGROV1 ovarian = system: IGROV1 ovarian
MOLT-4 leukemia = system: MOLT-4 leukemia
HCC-2998 colon = system: HCC-2998 colon
SF-539 CNS = system: SF-539 CNS
XF 498 CNS = system: XF 498 CNS
CAKI-1 renal = system: CAKI-1 renal
HT29 colon = system: HT29 colon
UACC-62 melanoma = system: UACC-62 melanoma
COLO 205 colon = system: COLO 205 colon
HOP-62 NSCLC = system: HOP-62 NSCLC
DMS 273 small cell lung = system: DMS 273 small cell lung
MALME-3M melanoma = system: MALME-3M melanoma
SNB-19 CNS = system: SNB-19 CNS
U251 CNS = system: U251 CNS
786-0 renal = system: 786-0 renal
TK-10 renal = system: TK-10 renal
KM20L2 colon = system: KM20L2 colon
SF-295 CNS = system: SF-295 CNS
NCI-H226 lung = system: NCI-H226 lung
LXFL 529 NSCLC = system: LXFL 529 NSCLC
MCF7 breast = system: MCF7 breast
MDA-MB-435 = system: MDA-MB-435
OVCAR-4 ovarian = system: OVCAR-4 ovarian
MDA-MB-231 breast = system: MDA-MB-231 breast
MDA-N = system: MDA-N
SNB-78 CNS = system: SNB-78 CNS
DU-145 prostate = system: DU-145 prostate
T-47D breast = system: T-47D breast
HS 578T breast = system: HS 578T breast
OVCAR-5 ovarian = system: OVCAR-5 ovarian
SR leukemia = system: SR leukemia
NCI/ADR-RES ovarian = system: NCI/ADR-RES ovarian
PC-3 prostate = system: PC-3 prostate
BT-549 breast = system: BT-549 breast
EKVX NSCLC = system: EKVX NSCLC

Question: `O=C(O)c1ccccc1[Se][Se]c1ccccc1C(=O)O` was tested. Which TGI (HL-60(TB) leukemia) did it give?
Answer: > 100 µM

Question: What about the TGI (M14 melanoma) of the same compound?
Answer: > 100 µM

Question: What about the TGI (KM12 colon) of the same compound?
Answer: 89.1 µM

Question: And the TGI (UACC-257 melanoma)?
Answer: > 100 µM

Question: What about the TGI (SK-MEL-5 melanoma) of the same compound?
Answer: > 100 µM

Question: And the TGI (OVCAR-3 ovarian)?
Answer: > 100 µM

Question: What about the TGI (HCT-15 colon) of the same compound?
Answer: > 100 µM

Question: And the TGI (DMS 114 small cell lung)?
Answer: > 100 µM

Question: What about the TGI (DLD-1 colon) of the same compound?
Answer: > 100 µM

Question: What about the TGI (CCRF-CEM leukemia) of the same compound?
Answer: > 100 µM

Question: And the TGI (M19-MEL melanoma)?
Answer: > 100 µM

Question: And the TGI (A498 renal)?
Answer: > 100 µM

Question: And the TGI (NCI-H460 lung)?
Answer: > 100 µM

Question: And the TGI (SK-MEL-2 melanoma)?
Answer: > 100 µM

Question: What about the TGI (RXF 393 renal) of the same compound?
Answer: > 100 µM

Question: What about the TGI (SN12C renal) of the same compound?
Answer: > 100 µM

Question: What about the TGI (RPMI-8226 leukemia) of the same compound?
Answer: > 100 µM

Question: And the TGI (A549 NSCLC)?
Answer: > 100 µM

Question: What about the TGI (HCT-116 colon) of the same compound?
Answer: > 100 µM

Question: What about the TGI (NCI-H23 lung) of the same compound?
Answer: > 100 µM

Question: And the TGI (UO-31 renal)?
Answer: 28.3 µM

Question: What about the TGI (HOP-18 NSCLC) of the same compound?
Answer: > 100 µM

Question: What about the TGI (SNB-75 CNS) of the same compound?
Answer: > 100 µM

Question: And the TGI (K-562 leukemia)?
Answer: > 100 µM

Question: And the TGI (LOX IMVI melanoma)?
Answer: 76.1 µM

Question: What about the TGI (ACHN renal) of the same compound?
Answer: > 100 µM

Question: What about the TGI (SK-MEL-28 melanoma) of the same compound?
Answer: > 100 µM

Question: And the TGI (RXF-631 renal)?
Answer: > 100 µM

Question: What about the TGI (OVCAR-8 ovarian) of the same compound?
Answer: > 100 µM

Question: What about the TGI (SK-OV-3 ovarian) of the same compound?
Answer: > 100 µM

Question: What about the TGI (HOP-92 NSCLC) of the same compound?
Answer: > 100 µM

Question: And the TGI (SW-620 colon)?
Answer: > 100 µM

Question: And the TGI (NCI-H522 lung)?
Answer: > 100 µM

Question: And the TGI (SF-268 CNS)?
Answer: > 100 µM

Question: What about the TGI (IGROV1 ovarian) of the same compound?
Answer: > 100 µM

Question: What about the TGI (MOLT-4 leukemia) of the same compound?
Answer: > 100 µM

Question: What about the TGI (HCC-2998 colon) of the same compound?
Answer: > 100 µM

Question: And the TGI (SF-539 CNS)?
Answer: > 100 µM

Question: And the TGI (XF 498 CNS)?
Answer: > 100 µM

Question: And the TGI (CAKI-1 renal)?
Answer: > 100 µM

Question: What about the TGI (HT29 colon) of the same compound?
Answer: > 100 µM

Question: What about the TGI (UACC-62 melanoma) of the same compound?
Answer: 82.8 µM

Question: What about the TGI (COLO 205 colon) of the same compound?
Answer: > 100 µM

Question: What about the TGI (HOP-62 NSCLC) of the same compound?
Answer: 73.5 µM

Question: And the TGI (DMS 273 small cell lung)?
Answer: > 100 µM

Question: What about the TGI (MALME-3M melanoma) of the same compound?
Answer: > 100 µM

Question: And the TGI (SNB-19 CNS)?
Answer: 45 µM

Question: What about the TGI (U251 CNS) of the same compound?
Answer: > 100 µM

Question: What about the TGI (786-0 renal) of the same compound?
Answer: > 100 µM

Question: What about the TGI (TK-10 renal) of the same compound?
Answer: > 100 µM

Question: What about the TGI (KM20L2 colon) of the same compound?
Answer: 68.5 µM

Question: What about the TGI (SF-295 CNS) of the same compound?
Answer: > 100 µM

Question: What about the TGI (NCI-H226 lung) of the same compound?
Answer: 31.4 µM

Question: Which TGI (HL-60(TB) leukemia) does the source give for `Cn1cnc([N+](=O)[O-])c1Sc1nnc(-c2cccnc2)n1C` here?
Answer: 21.1 µM

Question: What about the TGI (M14 melanoma) of the same compound?
Answer: 35.4 µM

Question: What about the TGI (KM12 colon) of the same compound?
Answer: > 100 µM

Question: And the TGI (UACC-257 melanoma)?
Answer: 23 µM

Question: And the TGI (SK-MEL-5 melanoma)?
Answer: 35.4 µM

Question: What about the TGI (OVCAR-3 ovarian) of the same compound?
Answer: 35.1 µM

Question: And the TGI (LXFL 529 NSCLC)?
Answer: 24.4 µM

Question: And the TGI (MCF7 breast)?
Answer: 46.8 µM

Question: What about the TGI (HCT-15 colon) of the same compound?
Answer: 36.2 µM

Question: What about the TGI (DMS 114 small cell lung) of the same compound?
Answer: > 49.2 µM

Question: What about the TGI (DLD-1 colon) of the same compound?
Answer: 40.5 µM

Question: What about the TGI (MDA-MB-435) of the same compound?
Answer: 30.2 µM

Question: And the TGI (CCRF-CEM leukemia)?
Answer: 45 µM

Question: And the TGI (OVCAR-4 ovarian)?
Answer: 56.6 µM

Question: And the TGI (M19-MEL melanoma)?
Answer: 38.8 µM

Question: And the TGI (A498 renal)?
Answer: > 100 µM

Question: And the TGI (NCI-H460 lung)?
Answer: > 100 µM

Question: And the TGI (SK-MEL-2 melanoma)?
Answer: 46.1 µM

Question: And the TGI (RXF 393 renal)?
Answer: 23.9 µM

Question: What about the TGI (SN12C renal) of the same compound?
Answer: 60.5 µM

Question: And the TGI (RPMI-8226 leukemia)?
Answer: 49.4 µM

Question: What about the TGI (A549 NSCLC) of the same compound?
Answer: > 100 µM

Question: And the TGI (MDA-MB-231 breast)?
Answer: 39.4 µM

Question: What about the TGI (MDA-N) of the same compound?
Answer: 43.3 µM

Question: What about the TGI (HCT-116 colon) of the same compound?
Answer: 40.1 µM

Question: What about the TGI (NCI-H23 lung) of the same compound?
Answer: 51.7 µM

Question: What about the TGI (UO-31 renal) of the same compound?
Answer: 53.8 µM

Question: What about the TGI (HOP-18 NSCLC) of the same compound?
Answer: 35.6 µM

Question: And the TGI (SNB-75 CNS)?
Answer: > 100 µM

Question: And the TGI (K-562 leukemia)?
Answer: 57.8 µM

Question: And the TGI (SNB-78 CNS)?
Answer: 63.2 µM

Question: What about the TGI (DU-145 prostate) of the same compound?
Answer: > 80.7 µM

Question: What about the TGI (LOX IMVI melanoma) of the same compound?
Answer: 34.9 µM

Question: What about the TGI (ACHN renal) of the same compound?
Answer: 36.7 µM

Question: And the TGI (T-47D breast)?
Answer: 32 µM

Question: What about the TGI (SK-MEL-28 melanoma) of the same compound?
Answer: 35.6 µM

Question: What about the TGI (OVCAR-8 ovarian) of the same compound?
Answer: 59.7 µM

Question: And the TGI (HS 578T breast)?
Answer: > 89.4 µM

Question: And the TGI (SK-OV-3 ovarian)?
Answer: > 100 µM

Question: What about the TGI (HOP-92 NSCLC) of the same compound?
Answer: 30.6 µM

Question: What about the TGI (SW-620 colon) of the same compound?
Answer: 31.3 µM

Question: And the TGI (NCI-H522 lung)?
Answer: 15.2 µM

Question: And the TGI (OVCAR-5 ovarian)?
Answer: > 100 µM

Question: What about the TGI (SF-268 CNS) of the same compound?
Answer: > 95.7 µM

Question: What about the TGI (IGROV1 ovarian) of the same compound?
Answer: > 100 µM

Question: And the TGI (SR leukemia)?
Answer: 45.5 µM

Question: And the TGI (MOLT-4 leukemia)?
Answer: 52 µM

Question: What about the TGI (HCC-2998 colon) of the same compound?
Answer: 67.1 µM

Question: And the TGI (SF-539 CNS)?
Answer: 55.2 µM

Question: And the TGI (XF 498 CNS)?
Answer: 44.8 µM

Question: What about the TGI (CAKI-1 renal) of the same compound?
Answer: 42.7 µM

Question: What about the TGI (HT29 colon) of the same compound?
Answer: 47.9 µM

Question: What about the TGI (UACC-62 melanoma) of the same compound?
Answer: 32.6 µM

Question: What about the TGI (COLO 205 colon) of the same compound?
Answer: 28.9 µM

Question: What about the TGI (HOP-62 NSCLC) of the same compound?
Answer: > 100 µM

Question: What about the TGI (DMS 273 small cell lung) of the same compound?
Answer: > 100 µM

Question: And the TGI (MALME-3M melanoma)?
Answer: 33.2 µM

Question: What about the TGI (SNB-19 CNS) of the same compound?
Answer: > 100 µM

Question: What about the TGI (NCI/ADR-RES ovarian) of the same compound?
Answer: > 100 µM

Question: And the TGI (U251 CNS)?
Answer: > 100 µM

Question: What about the TGI (786-0 renal) of the same compound?
Answer: 41.6 µM

Question: What about the TGI (PC-3 prostate) of the same compound?
Answer: > 57.9 µM

Question: And the TGI (TK-10 renal)?
Answer: 32.8 µM

Question: What about the TGI (BT-549 breast) of the same compound?
Answer: 36.5 µM

Question: And the TGI (EKVX NSCLC)?
Answer: 66.4 µM

Question: What about the TGI (KM20L2 colon) of the same compound?
Answer: > 100 µM

Question: What about the TGI (SF-295 CNS) of the same compound?
Answer: > 100 µM

Question: And the TGI (NCI-H226 lung)?
Answer: > 81.6 µM
